Results on 8 substances are retold here after patent US11603552B2 (priority 2020, dated 2023).

Entries after “also recorded” stand apart in the source; their conditions may differ.

The subject of one series is SARS-1. Conditions: cited from earlier work.
A further series has as its target NL63 PLP2 (recombinant) (Human coronavirus NL63, UniProt P0C6X5). Format: biochemical. Further details: cleavage of papain-like protease substrate: key to the marks not given beside the values.
For another series, the target named is PLpro from SARS-CoV-2 (Severe acute respiratory syndrome coronavirus 2, UniProt P0DTD1).
Series [1] addresses SARS-1 papain-like protease (recombinant) (Severe acute respiratory syndrome coronavirus, UniProt P0C6X7).
The subject of another series is SARS-2. The settings on record: cited from earlier work.
Another series deals with MERS. The settings on record: cited from earlier work.
Series [2] concerns the target SARS-2 papain-like protease (recombinant) (Severe acute respiratory syndrome coronavirus 2, UniProt P0DTD1).
The subject of series [3] is human cells infected with NL63 coronavirus. The series is classed as cell-based. Conditions: NL63, viral enzyme, in vivo (infected human cell lysate), after 15 minutes of incubation.
Another series addresses MERS PLpro (Middle East respiratory syndrome-related coronavirus, UniProt K9N7C7).
In series [4] the target is MERS papain-like protease (recombinant) (Middle East respiratory syndrome-related coronavirus, UniProt K9N7C7).
Chain of MERS papain-like protease (recombinant) (K9N7C7 1552-1823 limits assumed): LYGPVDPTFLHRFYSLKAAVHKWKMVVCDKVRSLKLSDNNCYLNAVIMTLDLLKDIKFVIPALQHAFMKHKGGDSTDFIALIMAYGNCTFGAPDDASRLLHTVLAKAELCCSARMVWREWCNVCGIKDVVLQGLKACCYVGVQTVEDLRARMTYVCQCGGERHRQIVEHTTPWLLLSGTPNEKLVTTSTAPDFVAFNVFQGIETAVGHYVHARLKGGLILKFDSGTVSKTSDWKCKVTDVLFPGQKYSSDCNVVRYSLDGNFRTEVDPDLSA
The target in the next series is PLpro from SARS-CoV-1 (Severe acute respiratory syndrome coronavirus, UniProt P0C6X7).
The next series deals with SARS PLpro. Format: biochemical.
A further series addresses human UCH-L3 (Homo sapiens, UniProt P15374). Format: biochemical.
The subject of series [5] is human cells infected with OC43 coronavirus. The series is classed as cell-based.
The test system of series [6] is endogenous enzymes present in crude tongue scrape lysate. The series is classed as biochemical, human.

Chain of NL63 PLP2 (recombinant) (P0C6X5 1640-1886 limits assumed): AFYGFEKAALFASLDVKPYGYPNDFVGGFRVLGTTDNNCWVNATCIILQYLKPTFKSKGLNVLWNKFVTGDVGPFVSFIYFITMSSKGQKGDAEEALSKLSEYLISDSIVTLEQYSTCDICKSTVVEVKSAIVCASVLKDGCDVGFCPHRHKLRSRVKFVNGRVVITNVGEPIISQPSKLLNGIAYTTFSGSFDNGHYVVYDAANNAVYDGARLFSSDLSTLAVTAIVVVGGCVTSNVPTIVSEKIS
Chain of MERS PLpro (K9N7C7 1552-1823 limits assumed): as the sequence (K9N7C7 1552-1823 limits assumed) above
Chain of human UCH-L3 (P15374 whole entry, looked up): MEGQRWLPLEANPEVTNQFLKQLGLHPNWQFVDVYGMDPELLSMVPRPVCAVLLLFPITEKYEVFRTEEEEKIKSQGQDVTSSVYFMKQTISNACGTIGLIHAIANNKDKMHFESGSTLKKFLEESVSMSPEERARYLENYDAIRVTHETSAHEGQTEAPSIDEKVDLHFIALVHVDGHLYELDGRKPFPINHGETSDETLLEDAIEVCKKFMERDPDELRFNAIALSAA

For Ubiquitin, the entries for the “Catalytic rate (Kcat)” value with SARS-1, in the series with SARS-2 and in the series with MERS were 10 min⁻¹, 75.9 min⁻¹ and 18.8 min⁻¹, respectively. Moreover, the “cleavage of papain-like protease substrate” value is “+++” on NL63 PLP2 (recombinant), “++” in series [1], “++” in [2] and “++” in series [4]. For the same substance, the “times more efficiently cleaved than ISG15” value at NL63 PLP2 (recombinant) turned out to be 2.5 times. For the same substance, on NL63 PLP2 (recombinant), the “times more efficiently cleaved than the tetrapeptide” value is 120 times. The “cleavage of substrate (qualitative)” value at PLpro from SARS-CoV-2, at MERS PLpro and at PLpro from SARS-CoV-1 was “cleave” in each case. The “cleavage, percent fluorescence increase relative to uninfected cells” value in series [3] came out at 24%^1.
For Ac-Tyr-Dap-G-G (SEQ ID NO. 11), the “specific cleavage by SARS PLpro (not by MERS PLpro or human deubiquitylating enzymes)” value in the series with SARS PLpro was “specifically cleaved”.
Ac-hPhe-Dap-G-G (SEQ ID NO. 12): the “specific cleavage by SARS PLpro (not by MERS PLpro or human deubiquitylating enzymes)” value in the series with SARS PLpro is listed as “specifically cleaved”.
The same measure, in the same setting: the entry for Ac-hTyr-Phe(guan)-G-G (SEQ ID NO. 10) is “specifically cleaved”; for Ac-Abu(Bth)-Dap-G-G (SEQ ID NO. 9) it is “specifically cleaved”.
As for hTyr-Dap-G-G (SEQ ID NO. 13), the “recognition of the substrate” value at human UCH-L3 is “do not recognize”.
Regarding Tyr-Dap-G-G (SEQ ID NO. 4), the “cleavage, percent fluorescence increase relative to uninfected cells” value in series [5] is given as 34%^3. Also, the “cleavage of papain-like protease substrate” value in series [1] is “++”; in [2], “+”. For the same substance, in series [6], the “cleavage by endogenous enzymes present in lysate” value is “is not cleaved”.
Regarding L-R-G-G (SEQ ID NO. 1), the “Catalytic rate (Kcat)” value was 0.0051 min⁻¹ with SARS-1, 0.3 min⁻¹ with SARS-2 and 0.003 min⁻¹ with MERS. For the same substance, the “cleavage of substrate (qualitative)” value on PLpro from SARS-CoV-2, at MERS PLpro and at PLpro from SARS-CoV-1 was “cleave” each time. Moreover, the “cleavage, percent fluorescence increase relative to uninfected cells” value in series [5] was determined as 22%^2. Further, the “cleavage of papain-like protease substrate” value in [1], in series [2] and in series [4] was “+” throughout. Besides, in series [6], the “cleavage by endogenous enzymes present in lysate” value is listed as “is cleaved; also recorded: slight fluorescence increases”.
